# US4599360A, “Ophthalmic anti-inflammatory agents” (Sankyo Company Limited, priority 1983, dated 1986)
# Experiments:
# [1] = tested on: eye; experiment: Eye irritation test (Draize method, evaluated by method of Kay and Calandra); type: in vivo, male Japanese rabbit; parameters: key: Draize irritation scores per Kay–Calandra method, mean of 4 rabbits
# Experimental: The irritation to the eyes caused by relatively highly concentrated solutions of the compounds of the invention was determined by the Draize method [J. H. Draize et al. J. Pharmacol. Exp. Ther., 82, 377 (1944)] and evaluated by the method of Kay and Calandra [J. H. Kay and J. C. Calandra, J. Soc. Cosmet. Chem., 13, 281 (1962)].
# The test solution employed in the present experiment was a simple solution of 10% or 20% by weight of the test compound dissolved in distilled water for injections and adjusted to pH 7 to 8 as required.
# Specifically, a male Japanese rabbit of body weight 2.5-3.0 kg was placed in a pillory to fix its head. A single dose of 0.1 ml of the test solution was instilled into its right eye. The symptoms experienced by the anterior portion of the right eye were observed over a period of seven days and the irritation observed was scored. The results are shown in Table 2, in each case averaged over the four rabbits in each test group.
# [2] = Acute toxicity, oral administration; parameters: species or system RFVL type mice; conditions: mouse, in vivo
# [3] = tested on: eye; conditions: cited from earlier work
# [4] = result in words; cited from earlier work
Compound,"Average irritation score, average ([1]; 10% solution, 0.1 ml, 1 hour)","Average irritation score, conjunctiva ([1]; 10% solution, 0.1 ml, 1 hour)","Average irritation score, cornea ([1]; 10% solution, 0.1 ml, 1 hour)","Average irritation score, iris ([1]; 10% solution, 0.1 ml, 1 hour)","Average irritation score, average ([1]; 10% solution, 0.1 ml, 24 hours)","Average irritation score, conjunctiva ([1]; 10% solution, 0.1 ml, 24 hours)","Average irritation score, cornea ([1]; 10% solution, 0.1 ml, 24 hours)","Average irritation score, iris ([1]; 10% solution, 0.1 ml, 24 hours)","Average irritation score, average ([1]; 10% solution, 0.1 ml, 48 hours)","Average irritation score, conjunctiva ([1]; 10% solution, 0.1 ml, 48 hours)","Average irritation score, cornea ([1]; 10% solution, 0.1 ml, 48 hours)","Average irritation score, iris ([1]; 10% solution, 0.1 ml, 48 hours)","Average irritation score, average ([1]; 10% solution, 0.1 ml, 72 hours)","Average irritation score, conjunctiva ([1]; 10% solution, 0.1 ml, 72 hours)","Average irritation score, cornea ([1]; 10% solution, 0.1 ml, 72 hours)","Average irritation score, iris ([1]; 10% solution, 0.1 ml, 72 hours)","Average irritation score, average ([1]; 10% solution, 0.1 ml, 96 hours)","Average irritation score, conjunctiva ([1]; 10% solution, 0.1 ml, 96 hours)","Average irritation score, cornea ([1]; 10% solution, 0.1 ml, 96 hours)","Average irritation score, iris ([1]; 10% solution, 0.1 ml, 96 hours)",also measured
CC(C(=O)[O-])c1ccc(CC2CCCC2=O)cc1.[Na+] (stereo not shown),,,,,,,,,,,,,,,,,,,,,"Average irritation score, cornea ([1]; rabbit, in vivo): 0; Average irritation score, iris ([1]; rabbit, in vivo): 0; LD50 ([2]; female mice): 3150 mg/kg; LD50 ([2]; male mice): 3030 mg/kg"
CC(C(=O)[O-])c1ccc(C[C@@H]2CCC[C@H]2O)cc1.[Na+] (relative stereo),1.3,1.3,0,0,0,0,0,0,0,0,0,0,0,0,0,0,0,0,0,0,"Average irritation score, average ([1]; 10% solution, 0.1 ml, 7 days): 0; Average irritation score, conjunctiva ([1]; 10% solution, 0.1 ml, 7 days): 0; Average irritation score, cornea ([1]; 10% solution, 0.1 ml, 7 days): 0; Average irritation score, iris ([1]; 10% solution, 0.1 ml, 7 days): 0"
"CC(C(=O)[O-])c1ccc(C=C2CCCCC2=O)cc1.[Na+] (stereo not shown) [Compound B, sodium 2-[4-(2-oxocyclohexylidenemethyl)phenyl]propionate]",1.3,1.3,0,0,0,0,0,0,0,0,0,0,0,0,0,0,0,0,0,0,"Average irritation score, average ([1]; 10% solution, 0.1 ml, 7 days): 0; Average irritation score, conjunctiva ([1]; 10% solution, 0.1 ml, 7 days): 0; Average irritation score, cornea ([1]; 10% solution, 0.1 ml, 7 days): 0; Average irritation score, iris ([1]; 10% solution, 0.1 ml, 7 days): 0"
"CC(C)Cc1ccc(C(C)C(=O)O)cc1 (stereo not shown) [Ibuprofen, ibuprofen]",,,,,,,,,,,,,,,,,,,,,"adverse effects upon the eye reported in the literature [3]: a variety of visual defects, including toxic amblyopia"
COC(=O)c1ccccc1O [methyl salicylate],,,,,,,,,,,,,,,,,,,,,toxicity for internal administration [4]: too toxic for internal administration
CCCCC1C(=O)N(c2ccccc2)N(c2ccccc2)C1=O [phenylbutazone],,,,,,,,,,,,,,,,,,,,,"adverse effects upon the eye reported in the literature [3]: conjunctivitis, toxic amblyopia, Stevens-Johnson syndrome, adhesion of lids to eyeballs, gross scarring of lids, corneal ulceration and scarring, vascularisation of the cornea, loss of vision and possible retinal haemorrhage"
